Laboratory results from article PMC10005967, “Discriminative binding of tau PET tracers PI2620, MK6240 and RO948 in Alzheimer’s disease, corticobasal degeneration and progressive supranuclear palsy brains” (Molecular Psychiatry, 2022).
Several values for one entry are separate records, joined by “and”; a condition that tells them apart may be missing. Equal entries are not always repeated. Where two headings read alike, the source gives them in different places.

Key:
[1] = molecular target: tau, AD FC brain homogenates (Homo sapiens, UniProt P10636); experiment: ^3H-PI2620 competitive binding assay in AD frontal cortex brain homogenates; conditions: for proportion of HA binding sites / proportion of SHA binding sites: vs 0.6 nM ^3H-PI2620; for IC50: vs 0.6 nM ^3H-PI2620, 2-site competition model
Description: (§1) Frozen human brain tissue from eleven AD, five CBD, four PSP and eight control patients was provided by the Netherlands Brain Bank (Amsterdam, Netherlands). Frozen human brain tissue from PSP case number 26 was provided by Professor Bernadino Ghetti, the Neuropathology of Dementia Laboratory, Indiana University School of Medicine (Indianapolis, IN, USA) (see Table 1 for demographic data). Brain homogenates were prepared by homogenising the brain tissue in phosphate buffer saline (PBS; pH 7.4) containing 0.1% BSA (250 mg tissue/mL) and protease/phosphatase inhibitors (10 μL/mL); aliquots were stored at −80 °C until used in the binding experiments.
Competitive binding assays on four AD FC brain homogenates [two early-onset (EO) AD and two late-onset (LO) AD; 0.5 mg tissue] were performed using 0.6 nM of ^3H-PI2620 and increasing concentrations (1 × 10^−18 M to 1 × 10^−6 M) of unlabelled PI2620, unlabelled MK6240 and unlabelled RO948 for 2 h at RT. The binding assay was accomplished as described above. The half-maximal inhibitory concentration (IC50) was measured using the 2-site competition model in GraphPad Prism 9 software.

[2] = tested on: tau, AD brain homogenates; conditions: cited from earlier work; for high-affinity (HA) binding site: AD brain homogenates
[3] = molecular target: tau, CBD FC homogenates (Homo sapiens, UniProt P10636); experiment: ^3H-PI2620 competitive binding assay in CBD frontal cortex brain homogenates
Description: as §1
(§2) Competitive binding assays were also carried out under the same conditions, on three PSP FC homogenates and three CBD FC homogenates using 0.6 nM and 1 nM of ^3H-PI2620, respectively, in the presence of increasing concentrations of unlabelled PI2620 (1 × 10^−18 M to 1 × 10^−6 M). The 2-site competition model in GraphPad Prism 9 software was used to plot the AD, CBD, and PSP data.

[4] = molecular target: tau, PSP FC homogenates (Homo sapiens, UniProt P10636); experiment: ^3H-PI2620 competitive binding assay in PSP frontal cortex brain homogenates; conditions: vs 0.6 nM ^3H-PI2620, only one binding site
Description: as §1, §2

[5] = tested on: tau, post-mortem PSP brain tissue; conditions: cited from earlier work
[6] = read-out: IC50(1), super-high affinity (SHA) site
[7] = read-out: IC50(2), high affinity (HA) site

Chain of tau, CBD FC homogenates (P10636 561-697 limits assumed): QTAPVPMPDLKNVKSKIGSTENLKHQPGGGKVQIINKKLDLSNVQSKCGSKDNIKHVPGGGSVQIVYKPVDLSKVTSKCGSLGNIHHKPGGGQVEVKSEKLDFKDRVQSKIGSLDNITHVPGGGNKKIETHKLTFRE
Chain of tau, AD FC brain homogenates (P10636 623-708 limits assumed): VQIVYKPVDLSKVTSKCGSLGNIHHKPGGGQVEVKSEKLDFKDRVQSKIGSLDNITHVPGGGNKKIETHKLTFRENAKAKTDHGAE
Chain of tau, PSP FC homogenates (P10636 561-698 limits assumed): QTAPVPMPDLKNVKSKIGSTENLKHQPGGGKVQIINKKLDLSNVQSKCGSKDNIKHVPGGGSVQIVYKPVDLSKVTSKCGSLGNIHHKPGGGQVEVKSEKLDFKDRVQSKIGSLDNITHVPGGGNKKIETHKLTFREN

| proportion of HA binding sites [1] | proportion of SHA binding sites [1] | IC50 [1, 6] [nM] | IC50 [1, 7] [nM] | proportion of HA binding sites ([3]; vs 1 nM ^3H-PI2620) [%] | proportion of SHA binding sites ([3]; vs 1 nM ^3H-PI2620) [%] | IC50 ([3]; vs 1 nM ^3H-PI2620, read-out: IC50(1), SHA site) [nM] | IC50 ([3]; vs 1 nM ^3H-PI2620, read-out: IC50(2), HA site) [nM] | IC50 [4] [nM] | SMILES | high-affinity (HA) binding site [2] [nM] | HA site ([2]; AD hippocampus, ^3H-MK6240) [nM] | super-high affinity (SHA) site ([2]; AD hippocampus, ^3H-MK6240) [pM] | proportion of HA site ([2]; AD hippocampus) [%] | proportion of SHA site ([2]; AD hippocampus) [%] | in vitro binding using autoradiography [5] |
| --- | --- | --- | --- | --- | --- | --- | --- | --- | --- | --- | --- | --- | --- | --- | --- |
| > 70% and 76% | > 20% and 24% | 0.0027 | 4.5 |  |  |  |  |  | Nc1c(F)ccc2cnc(-n3ccc4ccncc43)cc12 [MK6240] | 0.15 to 0.32 | 12 | 1 | 42 | 58 |  |
| > 70% and 77% | > 20% and 23% | 0.0081 | 4.9 | 54 | 46 | 0.0056 | 7.7 | 2.5 | Fc1cc(-c2ccc3c(n2)[nH]c2ccncc23)ccn1 [PI2620] | 8.5 |  |  |  |  |  |
| > 70% and 79% | > 20% and 21% | 0.0058 | 6.8 |  |  |  |  |  | Fc1ccc(-c2ccc3c(n2)[nH]c2cnccc23)cn1 [RO948] | 18 |  |  |  |  |  |
|  |  |  |  |  |  |  |  |  | Fc1ccc(-c2ccc3c(c2)[nH]c2ccncc23)cn1 [^18F-AV-1451] |  |  |  |  |  | no in vitro binding |
